{"source": "patent US20240400542A1", "about": "(University of Virginia Patent Foundation, priority 2021, published 2024)", "assay_in_all_cases": "SILAC competitive chemical proteomic assay (TH211 probe, LC-MS/MS)", "format_in_all_cases": "cell-based", "key": {"[1]": {"molecular_target": "T1, Cytochrome c (Homo sapiens, UniProt P99999)", "T1 construct": "endogenous in cells; host or cells: HEK293T", "T1 sequence (P99999 whole entry)": "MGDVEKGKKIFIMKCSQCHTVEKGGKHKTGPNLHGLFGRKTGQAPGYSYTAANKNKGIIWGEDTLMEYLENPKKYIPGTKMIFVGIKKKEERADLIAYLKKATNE", "conditions": "TH207 inhibitor, HEK293T soluble fraction", "description": "(§1) The light and heavy proteomes (2.3 mg/mL, 432 μL) prepared from HEK293T cells that were pretreated in situ with vehicle (DMSO) or the inhibitor (2 μM), respectively, at 37° C. for 1 hr followed by probe TH211 treatment (50 μM) for 2 h, were directly were subjected to click reaction with the desthiobiotin-PEG3-azide (10 mM in DMSO, 10 μL, final concentration 200 μM) in the presence of TCEP (50 mM, 10 μL), TBTA (1.7 mM, 33 μL) and CuSO4 (50 mM, 10 μL) at room temperature for 1 hr. The light and the heavy samples were mixed in the chloroform-methanol extraction step. The subsequent steps including reduction with dithiothreitol, alkylation with iodoacetamide, digestion with Trypsin/Lys-C, enrichment with avidin beads were conducted as previously described^26."}, "[2]": {"molecular_target": "T2, Phosphatidylinositol transfer protein beta isoform (Homo sapiens, UniProt P48739)", "T2 construct": "endogenous in cells; host or cells: HEK293T", "T2 sequence (P48739 1-271)": "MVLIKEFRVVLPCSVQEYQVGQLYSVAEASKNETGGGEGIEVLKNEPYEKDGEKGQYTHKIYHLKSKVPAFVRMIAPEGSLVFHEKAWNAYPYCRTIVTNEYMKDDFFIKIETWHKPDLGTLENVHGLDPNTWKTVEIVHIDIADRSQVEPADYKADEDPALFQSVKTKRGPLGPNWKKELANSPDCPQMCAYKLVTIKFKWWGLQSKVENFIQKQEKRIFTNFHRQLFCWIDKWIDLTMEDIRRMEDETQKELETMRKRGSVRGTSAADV", "conditions": "TH207 inhibitor, HEK293T soluble fraction", "description": "as §1"}, "[3]": {"molecular_target": "T3, Perilipin-2 (Homo sapiens, UniProt Q99541)", "T3 construct": "endogenous in cells; host or cells: HEK293T", "T3 sequence (Q99541 1-437)": "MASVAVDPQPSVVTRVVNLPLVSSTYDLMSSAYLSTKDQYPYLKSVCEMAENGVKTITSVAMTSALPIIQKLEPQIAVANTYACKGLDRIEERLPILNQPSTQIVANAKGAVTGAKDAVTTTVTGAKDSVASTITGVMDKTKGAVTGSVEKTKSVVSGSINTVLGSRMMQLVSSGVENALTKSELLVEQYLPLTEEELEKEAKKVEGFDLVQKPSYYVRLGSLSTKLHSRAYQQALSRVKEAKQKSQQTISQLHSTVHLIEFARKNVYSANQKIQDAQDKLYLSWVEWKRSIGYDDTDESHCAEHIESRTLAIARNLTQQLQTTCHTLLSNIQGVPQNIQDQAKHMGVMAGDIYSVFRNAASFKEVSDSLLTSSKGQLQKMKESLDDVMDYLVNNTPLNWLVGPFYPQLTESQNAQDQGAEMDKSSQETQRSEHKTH", "conditions": "TH207 inhibitor; HEK293T soluble fraction; Q99541.2 tyrosine 190", "description": "as §1"}, "[4]": {"molecular_target": "T4, 14-3-3 protein epsilon (Homo sapiens, UniProt P62258)", "T4 construct": "endogenous in cells; host or cells: HEK293T", "T4 sequence (P62258 1-255)": "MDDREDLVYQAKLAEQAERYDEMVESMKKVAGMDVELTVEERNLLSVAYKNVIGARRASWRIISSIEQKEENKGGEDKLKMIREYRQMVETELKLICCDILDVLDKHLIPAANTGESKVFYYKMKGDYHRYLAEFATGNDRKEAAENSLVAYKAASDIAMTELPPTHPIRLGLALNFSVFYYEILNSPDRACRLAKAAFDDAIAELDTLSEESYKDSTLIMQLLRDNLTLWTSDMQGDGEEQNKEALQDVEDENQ", "conditions": "TH207 inhibitor; HEK293T soluble fraction; P62258.1 lysine 215", "description": "as §1"}, "[5]": {"molecular_target": "T5, Coronin-1C (Homo sapiens, UniProt Q9ULV4)", "T5 construct": "endogenous in cells; host or cells: HEK293T", "T5 sequence (Q9ULV4 whole entry)": "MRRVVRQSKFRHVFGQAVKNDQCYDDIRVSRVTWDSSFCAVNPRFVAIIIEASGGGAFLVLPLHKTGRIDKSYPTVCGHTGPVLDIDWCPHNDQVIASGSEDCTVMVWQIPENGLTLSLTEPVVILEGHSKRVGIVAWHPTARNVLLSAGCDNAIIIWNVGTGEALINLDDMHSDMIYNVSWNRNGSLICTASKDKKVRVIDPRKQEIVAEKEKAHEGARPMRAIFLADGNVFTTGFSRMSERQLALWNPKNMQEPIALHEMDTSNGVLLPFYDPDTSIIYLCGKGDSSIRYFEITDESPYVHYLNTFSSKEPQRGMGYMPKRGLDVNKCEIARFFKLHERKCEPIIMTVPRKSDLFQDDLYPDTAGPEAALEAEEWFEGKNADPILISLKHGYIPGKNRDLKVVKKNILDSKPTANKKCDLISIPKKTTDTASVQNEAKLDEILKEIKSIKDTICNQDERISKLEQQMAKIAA", "conditions": "TH207 inhibitor; HEK293T soluble fraction; Q9ULV4.1 tyrosine 301", "description": "as §1"}, "[6]": {"molecular_target": "T6, Inosine-5′-monophosphate dehydrogenase 2 (Homo sapiens, UniProt P12268)", "T6 construct": "endogenous in cells; host or cells: HEK293T", "T6 sequence (P12268 2-514 limits assumed)": "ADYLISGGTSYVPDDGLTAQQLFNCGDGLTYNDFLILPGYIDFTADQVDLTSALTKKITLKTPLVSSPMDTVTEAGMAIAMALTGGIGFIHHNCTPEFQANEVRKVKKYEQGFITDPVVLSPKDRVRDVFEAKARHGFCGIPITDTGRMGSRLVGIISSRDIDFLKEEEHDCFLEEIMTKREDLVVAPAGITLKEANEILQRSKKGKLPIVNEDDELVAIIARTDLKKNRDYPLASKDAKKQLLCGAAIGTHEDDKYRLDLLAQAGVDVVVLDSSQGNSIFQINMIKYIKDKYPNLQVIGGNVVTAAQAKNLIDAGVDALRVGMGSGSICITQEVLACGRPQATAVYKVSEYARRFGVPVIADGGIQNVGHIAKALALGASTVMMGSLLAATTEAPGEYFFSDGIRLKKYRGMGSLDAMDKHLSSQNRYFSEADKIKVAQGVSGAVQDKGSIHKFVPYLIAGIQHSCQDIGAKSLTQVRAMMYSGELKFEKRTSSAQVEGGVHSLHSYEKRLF", "conditions": "TH207 inhibitor; HEK293T soluble fraction; P12268.2 tyrosine 509", "description": "as §1"}, "[7]": {"molecular_target": "T7, Sorting nexin-6 (Homo sapiens, UniProt Q9UNH7)", "T7 construct": "endogenous in cells; host or cells: HEK293T", "T7 sequence (Q9UNH7 1-406)": "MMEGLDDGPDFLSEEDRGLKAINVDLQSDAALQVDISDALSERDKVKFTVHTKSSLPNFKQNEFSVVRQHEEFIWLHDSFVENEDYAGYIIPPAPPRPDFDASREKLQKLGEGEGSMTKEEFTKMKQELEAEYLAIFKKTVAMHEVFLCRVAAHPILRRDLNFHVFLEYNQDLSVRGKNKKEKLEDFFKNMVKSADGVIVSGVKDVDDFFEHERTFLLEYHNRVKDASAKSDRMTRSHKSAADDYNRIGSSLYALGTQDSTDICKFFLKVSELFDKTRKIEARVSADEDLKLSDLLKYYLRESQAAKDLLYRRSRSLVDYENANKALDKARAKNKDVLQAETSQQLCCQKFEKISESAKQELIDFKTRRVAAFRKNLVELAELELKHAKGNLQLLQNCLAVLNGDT", "conditions": "TH207 inhibitor; HEK293T soluble fraction; Q9UNH7.1 lysine 204", "description": "as §1"}, "[8]": {"molecular_target": "T8, Phosphotyrosine protein phosphatase (Homo sapiens, UniProt P24666)", "T8 construct": "endogenous in cells; host or cells: HEK293T", "T8 sequence (P24666 1-158)": "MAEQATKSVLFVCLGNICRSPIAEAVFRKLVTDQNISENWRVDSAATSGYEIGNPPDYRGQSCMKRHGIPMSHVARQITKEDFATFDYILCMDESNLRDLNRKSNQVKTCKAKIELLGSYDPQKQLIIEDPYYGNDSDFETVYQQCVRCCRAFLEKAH", "conditions": "TH207 inhibitor; HEK293T soluble fraction; P24666.3 tyrosine 132", "description": "as §1"}, "[9]": {"molecular_target": "T9, Alpha-enolase (Homo sapiens, UniProt P06733)", "T9 construct": "endogenous in cells; host or cells: HEK293T", "T9 sequence (P06733 whole entry)": "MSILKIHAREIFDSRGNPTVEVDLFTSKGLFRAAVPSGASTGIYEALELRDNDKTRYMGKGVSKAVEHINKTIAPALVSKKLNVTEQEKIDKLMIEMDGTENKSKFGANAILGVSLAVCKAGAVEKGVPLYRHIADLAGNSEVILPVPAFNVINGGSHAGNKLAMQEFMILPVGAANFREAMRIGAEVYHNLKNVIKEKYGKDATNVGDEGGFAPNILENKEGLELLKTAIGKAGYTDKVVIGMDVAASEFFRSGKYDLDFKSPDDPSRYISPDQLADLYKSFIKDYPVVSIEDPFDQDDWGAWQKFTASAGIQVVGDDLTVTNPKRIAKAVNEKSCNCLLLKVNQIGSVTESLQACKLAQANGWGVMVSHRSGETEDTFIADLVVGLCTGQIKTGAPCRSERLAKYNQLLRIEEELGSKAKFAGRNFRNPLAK", "conditions": "TH207 inhibitor; HEK293T soluble fraction; P06733.2 lysine 80", "description": "as §1"}, "[10]": {"molecular_target": "T10, dCTP pyrophosphatase 1 (Homo sapiens, UniProt Q9H773)", "T10 construct": "endogenous in cells; host or cells: HEK293T", "T10 sequence (Q9H773 1-170)": "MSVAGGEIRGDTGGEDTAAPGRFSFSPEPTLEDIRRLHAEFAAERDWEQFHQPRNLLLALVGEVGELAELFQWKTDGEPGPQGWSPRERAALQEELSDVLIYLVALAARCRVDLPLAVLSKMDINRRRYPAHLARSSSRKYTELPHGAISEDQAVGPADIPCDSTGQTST", "conditions": "TH207 inhibitor; HEK293T soluble fraction; Q9H773.1 tyrosine 129", "description": "as §1"}}}
{"smiles": "Cc1ccc(S(=O)(=O)n2cc(CCN3CCC(=C(c4ccc(F)cc4)c4ccc(F)cc4)CC3)nn2)cc1", "note": "[TH207, 4-(Bis(4-fluorophenyl)methylene)-1-(2-(1-tosyl-1H-1,2,3-triazol-4-yl)ethyl)piperidine]", "values": [{"measurement": "Normalized SILAC ratio (SR), Cytochrome c K28", "setting": "[1]; P99999.2 lysine 28", "value": 1.4}, {"measurement": "Normalized SILAC ratio (SR), Cytochrome c K40", "setting": "[1]; P99999.2 lysine 40", "value": 1.5}, {"measurement": "Normalized SILAC ratio (SR), Cytochrome c K54", "setting": "[1]; P99999.2 lysine 54", "value": 1.8}, {"measurement": "Normalized SILAC ratio (SR), Cytochrome c Y49", "setting": "[1]; P99999.2 tyrosine 49", "value": 1.5}, {"measurement": "Normalized SILAC ratio (SR), Phosphatidylinositol transfer protein beta isoform K155", "setting": "[2]; P48739.2 lysine 155", "value": 1.8}, {"measurement": "Normalized SILAC ratio (SR), Phosphatidylinositol transfer protein beta isoform Y154", "setting": "[2]; P48739.2 tyrosine 154", "value": 1.8}, {"measurement": "Normalized SILAC ratio (SR), Perilipin-2 Y190", "setting": "[3]", "value": 3.5}, {"measurement": "Normalized SILAC ratio (SR), 14-3-3 protein epsilon K215", "setting": "[4]", "value": 3.7}, {"measurement": "Normalized SILAC ratio (SR), Coronin-1C Y301", "setting": "[5]", "value": 20}, {"measurement": "Normalized SILAC ratio (SR), Inosine-5′-monophosphate dehydrogenase 2 Y509", "setting": "[6]", "value": 1.6}, {"measurement": "Normalized SILAC ratio (SR), Sorting nexin-6 K204", "setting": "[7]", "value": 6.9}, {"measurement": "Normalized SILAC ratio (SR), Phosphotyrosine protein phosphatase Y132", "setting": "[8]", "value": 1.9}, {"measurement": "Normalized SILAC ratio (SR), Alpha-enolase K80", "setting": "[9]", "value": 1.6}, {"measurement": "Normalized SILAC ratio (SR), dCTP pyrophosphatase 1 Y129", "setting": "[10]", "value": 3}]}
